Test results from article PMC6736568, “Discovery of Novel Anti-cryptosporidial Activities From Natural Products by in vitro High-Throughput Phenotypic Screening” (Frontiers in Microbiology, 2019).
Structures can show the parent of a compound that is named as a salt. Where two headings read alike, the source gives them in different places.

How the values were obtained:
Cryptosporidium parvum = test: qRT-PCR assay of the growth of C. parvum in vitro in HCT-8 host cells (primary and secondary screening, EC50); format: cell-based; details: Cryptosporidium parvum, HCT-8; for inhibition at 3.3 µM: secondary screening at 3.3 uM, read-out: % Inhibition (3.3 uM)
[1] = primary screening at 10 uM, read-out: Inhibition (%)
[2] = primary screening at 10 uM, treated vs control

SMILES	inhibition at 10 µM (Cryptosporidium parvum; [1]) [%]	Hs18S ΔCT (HCT-8 host cells (Hs18S); [2])	cytotoxicity at 10 µM (in vitro) [%]	Hs18S ΔCT (HCT-8 host cells (Hs18S); human, 41 h, 10 μM)	cytotoxicity at 41 h, 10 µM (in vitro; human) [%]	further results
CC1=C2C(=CO[C@H](C)[C@H]2C)C(O)=C(C(=O)O)C1=O [CITRININ]	8.51	0.13	8.3			
C[C@H]1O[C@@H](O[C@H]2[C@@H](O)C[C@H](O[C@H]3[C@@H](O)C[C@H](O[C@H]4CC[C@@]5(C)[C@H](CC[C@@H]6[C@@H]5CC[C@]5(C)[C@@H](C7=CC(=O)OC7)[C@@H](O)C[C@]65O)C4)O[C@@H]3C)O[C@@H]2C)C[C@H](O)[C@@H]1O [GITOXIN]	35.4	0.08	5.4			
C=CCN=C=S [ALLYLISOTHIOCYANATE]	25.7			0.28	17.7	
O=C(O)C1CC([C@@H]2CCCCN2)CN2CCCCC12 (stereo partly shown) [APHYLLIC ACID]	-28.5			0.25	16.1	
c1coc(CNc2ncnc3[nH]cnc23)c1 [KINETIN]	-42.7			0.54	31	
N=C(N)NOCC[C@H](N)C(=O)O [CANAVANINE]	-3.4	0.29	18.4			
C=CC(C1=CC(=O)C(OC)=CC1=O)c1ccc(OC)cc1 (stereo not shown) [4,4'-DIMETHOXYDALBERGIONE]	-34.2			-0.01	-0.7	
CC(=O)OCC(=O)[C@H]1CC[C@H]2[C@@H]3CC=C4C[C@@H](O)CC[C@]4(C)[C@H]3CC[C@]12C [21-ACETOXYPREGNENOLONE]	-41.2			0.10	6.5	
OC[C@H]1O[C@@](CO)(O[C@H]2O[C@H](CO)[C@@H](O)[C@H](O)[C@H]2O)[C@@H](O[C@H]2O[C@H](CO)[C@@H](O)[C@H](O)[C@H]2O)[C@@H]1O [MELEZITOSE]	-16.8			-0.18	-13	
Cc1c(O)c(O)cc2c1CC=C1[C@@]2(C)CC[C@@]2(C)[C@@H]3C[C@](C)(C(=O)O)CC[C@]3(C)CC[C@]12C [DIHYDROCELASTROL]	92.5	1.27	58.7			inhibition at 3.3 µM (Cryptosporidium parvum): -66%
NC[C@H]1O[C@H](O[C@H]2[C@H](O)[C@@H](O[C@H]3O[C@H](CO)[C@@H](O)[C@H](N)[C@H]3O)[C@H](N)C[C@@H]2N)[C@H](O)[C@@H](O)[C@@H]1O [KANAMYCIN A SULFATE]	29.3			-0.31	-23.9	
N=C(N)NCCCCN [AGMATINE SULFATE]	-2.93	0.21	13.5			
CCCCCC[C@H]1C(=O)O[C@H](C)[C@H](NC(=O)c2cccc(NC=O)c2O)C(=O)O[C@@H](C)[C@@H]1OC(=O)CC(C)C [ANTIMYCIN A, ANTIMYCIN A (A1 shown)]	10.9	0.12	7.7			
COC(=O)C[C@H]1C(C)(C)C2(O)OC34CC2C(=O)[C@]1(C)C3CC[C@]1(C)C4=CC(=O)O[C@H]1c1ccoc1 (stereo partly drawn) [8beta-HYDROXYCARAPIN, 3,8-HEMIACETAL]	89.7			0.18	11.8	inhibition at 3.3 µM (Cryptosporidium parvum): 64%
C=C(C)[C@@H]1CC=C(C(=O)O)CC1 [PERILLIC ACID (-)]	-16.2	0.14	8.9			
CC(=O)O[C@]1(C)CC[C@@]23C[C@@H]1C(C)(C)[C@@H]2CC[C@H]3C [CEDRYL ACETATE]	9.38	0.05	3.6			
O=C1c2cccc(O)c2C(=O)c2c(O)cccc21 [DANTHRON]	23	-0.12			-8.6	
CC(C)=CCC/C(C)=C/COc1ccc2ccc(=O)oc2c1	3.93	0.02	1.2			
O=c1c(-c2cc(O)c(O)c(O)c2)coc2cc(O)c(O)c(O)c12 [IRIGENOL]	-13.4			0.01	0.7	
COc1ccc2c3c([nH]c2c1)C(C)=NCC3 [HARMALINE]	-31.9	0.01	0.9			
OC[C@H]1O[C@@H](Oc2ccc(O)cc2)[C@H](O)[C@@H](O)[C@@H]1O [ARBUTIN]	16.1			0.01	0.5	
COc1c(C)c2c(c(O)c1C/C=C(\C)CCC(=O)O)C(=O)OC2 [MYCOPHENOLIC ACID]	44.4			1.03	51.1	
O=C(Oc1cc(O)cc2c1C[C@@H](OC(=O)c1cc(O)c(O)c(O)c1)[C@@H](c1cc(O)c(O)c(O)c1)O2)c1cc(O)c(O)c(O)c1 [EPIGALLOCATECHIN 3,5-DIGALLATE]	-1.19	-0.23	-17.5			
CC(C)=CCCC1(C)C=Cc2c(O)c3c(c(CC=C(C)C)c2O1)OC12C(=CCCC1C(C)(C)O[C@@]2(C/C=C(\C)C(=O)O)C(=O)O)C3=O (stereo partly shown) [GARCINOLIC ACID]	-51.3			0.36	22	

SMILES	inhibition at 10 µM (Cryptosporidium parvum; [1]) [%]	Hs18S ΔCT (HCT-8 host cells (Hs18S); [2])	cytotoxicity at 10 µM (in vitro) [%]	Hs18S ΔCT (HCT-8 host cells (Hs18S); human, 41 h, 10 μM)	cytotoxicity at 41 h, 10 µM (in vitro; human) [%]	further results
C=C(C)[C@H]1CC=C(C)CC1 [d-LIMONENE]	-6.54			-0.21	-15.7	
O=c1c(O)c(-c2ccccc2)oc2cc(O)cc(O)c12 [GALANGIN]	-14.9	0.39	23.6			
CC[C@H](CC[C@@H](C)[C@H]1CC[C@H]2[C@@H]3CC=C4C[C@@H](O)CC[C@]4(C)[C@H]3CC[C@]12C)C(C)C [beta-SITOSTEROL]	91.7	0.43	25.8			inhibition at 3.3 µM (Cryptosporidium parvum): 20%
C=CCSCC=C [DIALLYL SULFIDE]	19.6			-0.01	-0.8	
C=C[C@H]1C[N@@]2CC[C@H]1C[C@@H]2[C@@H](O)c1ccnc2ccccc12 [CINCHONINE]	-10.5	0.01				cytotoxicity at 41 h, 10 µM (in vitro): 0.4%
CC1(C)C=Cc2cc3ccc(=O)oc3cc2O1 [XANTHYLETIN]	1.74	0.12	8.1			
COC(=O)CC[C@@H](C)[C@H]1CC[C@H]2[C@@H]3CC[C@@H]4C[C@H](O)CC[C@]4(C)[C@H]3C[C@H](O)[C@]12C [METHYL DEOXYCHOLATE]	23.4			0.66	36.7	
COc1ccc(-c2cc(=O)c3c(O)c(OC)c(OC)c(OC)c3o2)cc1 [GARDENIN B]	53.6			0.25	16	
CCCCCCCCCCCCCCCCCCOCC(O)CO (stereo not shown) [BATYL ALCOHOL]	41.3			-0.57	-48	
CC1=C(/C=C/C(C)=C/C=C/C(C)=C/C(=O)O)C(C)(C)CCC1 [TRETINOIN]	7.49			-0.28	-21.5	
Nc1ncnc2nc[nH]c12 [ADENINE]	-9.27	-0.08			-5.9	
NCCCCN [PUTRESCINE DIHYDROCHLORIDE]			-3			inhibition at 10 µM (Cryptosporidium parvum): 28.7%; Hs18S ΔCT (HCT-8 host cells (Hs18S)): -0.04
CC[C@]12CCCN3CCc4c(n(c5ccccc45)[C@@](O)(C(=O)OC)C1)[C@@H]32 [VINCAMINE]	-20.8			0.12	8.2	
COc1cc(O)c2c(=O)cc(-c3ccc(O)cc3)oc2c1 [GENKWANIN]	-9.13	-0.83	-77.7			
COc1cc2c(cc1O)C[C@H]1c3c(cc(O)c(OC)c3-2)CCN1C [BOLDINE]	-28.6	-0.34	-26.4			
CC[C@@]1(O)C[C@H](O[C@H]2C[C@H](N(C)C)[C@H](O)[C@H](C)O2)c2c(cc3c(c2O)C(=O)c2c(O)ccc(O)c2C3=O)[C@H]1C(=O)OC [PYRROMYCIN]	-46.1	0.35	21.5			
COc1cc(C(C)=O)cc(OC)c1O [ACETOSYRINGONE]	-26.9			-0.06	-4	
N[C@@H](Cc1cc(I)c(Oc2cc(I)c(O)c(I)c2)c(I)c1)C(=O)O [LEVOTHYROXINE]	-12.4			-0.03	-2.2	
COc1ccc([C@H]2Oc3cc(OC)cc(OC)c3C[C@H]2O)cc1 [EPIAFZELECHIN TRIMETHYL ETHER]	13.8			0.21	13.4	
COc1ccc2cc1Oc1ccc(cc1)C[C@H]1c3c(cc4c(c3Oc3cc5c(cc3OC)CCN(C)[C@@H]5C2)OCO4)CCN1C [CEPHARANTHINE]	16.8			0.33	20.5	
Cc1c(C)c2c(c(C)c1O)CCC(C)(CCCC(C)CCCC(C)CCCC(C)C)O2 (stereo not drawn) [alpha-TOCHOPHEROL]	-14.7	0.21	13.8			
CC1=C(/C=C/C(C)=C/C=C/C(C)=C/C=C/C=C(C)/C=C/C=C(C)/C=C/C2=C(C)C(=O)[C@@H](O)CC2(C)C)C(C)(C)C[C@H](O)C1=O [ASTAXANTHIN]	45.1			-0.43	-34.8	
O=c1ccc2cc(O)c(O)cc2o1 [ESCULETIN]	-23.8	0.21	13.5			
CC1=C(CCC(=O)O)c2cc3[nH]c(cc4nc(cc5[nH]c(cc1n2)c(C)c5C(C)O)C(C)=C4C(C)O)c(C)c3CCC(=O)O (stereo not shown) [HAEMATOPORPHYRIN]	93.1			1.45	63.3	inhibition at 3.3 µM (Cryptosporidium parvum): 33%
